These are literature values, as cited in patent US7968712B2, “Process for the resolution of zopiclone and intermediate compounds” (Esteve Quimica, S.A., priority 2007, dated 2011).

The conditions of series [1]: compared with racemic zopiclone.
The conditions of series [2]: compared with racemic zopiclone. The source holds these as a separate data set.

Consider `CN1CCN(C(=O)O[C@@H]2c3nccnc3C(=O)N2c2ccc(Cl)cn2)CC1` (single isomer, unassigned) [laevorotatory isomer], for which the “activity relative to the racemate” value in series [1] was “almost inactive”. The “toxicity relative to the racemate” value in series [2] is recorded as “more toxic than the racemate”.
Consider `CN1CCN(C(=O)O[C@H]2c3nccnc3C(=O)N2c2ccc(Cl)cn2)CC1` [dextrorotatory enantiomer, eszopiclone], for which the “toxicity relative to the racemate” value in series [2] is “lower toxicity than that of the racemate”.
